Our source for the Vd, AUC and Cmax values is ChEMBL document CHEMBL3603747, “Discovery, design, and synthesis of indole-based EZH2 inhibitors” (Bioorg Med Chem Lett, 2015).

Common to all, as to assay type: ADME, organism-based
Series [1] is described as follows: Volume of distribution at steady state in CB17 SCID mouse at 1 mg/kg, iv by LC-MS method. Conditions: in vivo, read-out: Vdss.
Series [2] in a line: AUC in CB17 SCID mouse at 1 mg/kg, iv by LC-MS method. Conditions: in vivo.
Series [3] in a line: Cmax in CB17 SCID mouse at 200 mg/kg, sc by LC-MS method. On the set-up: dose 200 mg/kg, route subcutaneous. The following applies: in vivo.
Series [4] in a line: AUC in CB17 SCID mouse at 200 mg/kg, sc by LC-MS method. Conditions: in vivo.

For the molecule `CCS(=O)(=O)N1CCC([C@@H](C)n2c(C)c(C(=O)NCc3c(OC)cc(C)[nH]c3=O)c3ccccc32)CC1`, the Vd in series [1] was 0.795 L/kg. The AUC in series [2] was found to be 362 ng·h/mL; in series [4], 51000 ng·h/mL. In series [3], the peak level (Cmax) was 9150 ng/mL.
